Results on one substance are retold here after PMC2949076 (Journal of clinical immunology, 2010).

“And” between values parts separate entries of the source, which are not always exact repeats. Identical values can stand only once.

For experiment [1], the system named is CD8+ T cells in PBMC. Briefly: Granzyme B and perforin detection by flow cytometry. Type of experiment: cell-based, human. A general note: In flow cytometry, cells or beads pass a laser one at a time.
For experiment [2], the system named is CD8+ T cells in PBMC. Type of experiment: cell-based, human.

Consider staphylococcal enterotoxin B [SEB], for which the “CD8+ T cells lacking granule proteins” value in the experiment with CD8+ T cells in PBMC [1] was 58% and 44.5–70.9%. For the same substance, in the experiment with CD8+ T cells in PBMC [2], the “CD107a mobilization, monofunctional vs polyfunctional cells” value is “increases were observed” and the “IFN-γ-level change in polyfunctional cells” value was “increases in IFN-γ observed”.
